These results are taken from patent US12291508B2, “Hydrazide containing nuclear transport modulators and uses thereof” (Karyopharm Therapeutics Inc., priority 2011, dated 2025).

Where a name gives a salt, the structure may show the parent alone. Bounds are passed on as bounds.

In experiment [1] the test system is MM.1S multiple myeloma cell line. In words: CellTiter 96 AQueous One Solution cell proliferation assay, MM.1S. The class given is cell-based. The settings on record: Homo sapiens, MM1.S, 72 h of treatment, read-out: Cytotoxicity Assay. The source says:
The CellTiter 96® AQueous One Solution cell proliferation assay (Promega) was used on MM.1S multiple myeloma cell line to study the cytotoxic and cytostatic properties of the compounds. The assay is based on the cleavage of the tetrazolium salt, MTS, in the presence of an electron-coupling reagent PES (phenazine ethosulfate). The MTS tetrazolium compound is bioreduced by cells into a colored formazan product that is soluble in tissue culture medium. This conversion is presumably accomplished by NADPH or NADH produced by dehydrogenase enzymes in metabolically active cells. Assays are performed by adding a small amount of the CellTiter 96® AQueous One solution reagent directly to culture wells, incubating for 1-4 hours and then recording the absorbance at 490 nm with a 96-well plate reader.
(§1) The cells were seeded at 5×10^3 to 1.5×10^4 cells in each well of a 96-well plate in 100 μL of fresh culture medium and adherent cells were allowed to attach overnight. The stock solutions of the compounds were diluted in cell culture medium to obtain eight concentrations of each drug, ranging from 1 nM to 30 μM and DMSO at less than 1% v/v was used as a negative control. The resulting drug solutions were transferred onto the cells. After 72 h of treatment, 20 μl of CellTiter 96® AQueous reagent was added into each well of the 96-well assay plates and the plate was incubated at 37° C. for 1-4 hours in a humidified, 5% CO2 atmosphere. Then the absorbance of each well was recorded at 490 nm using a 96-well plate reader. In most cases, the assay was performed in triplicate and the results were presented as half maximal inhibitory concentration (IC50). Optical density versus compound concentration was plotted and analyzed using non-linear regression equations (IDBS XLfit) and the IC50 for each compound was calculated.

The subject of the next experiment is MDA-MB-468. In words: Cell proliferation assay, MDA-MB-468. It is filed as cell-based. The conditions noted are these: Homo sapiens; MDA-MB-468, after 72 hours. How it is done:
as §1, with “1.5×10^4 cells (depending on cell type) in each” for “1.5×10^4 cells in each”, “concentration (IC50).” for “concentration (IC50). Optical density versus compound concentration was plotted and analyzed using non-linear regression equations (IDBS XLfit) and the IC50 for each compound was calculated.”

The test system of a further experiment is DU4475. In words: Cell proliferation assay, DU4475. It is filed as cell-based. The conditions noted are these: Homo sapiens, DU-4475; DU4475, type Lu, 72 h. How it is done: as §1, with “1.5×10^4 cells (depending on cell type) in each” for “1.5×10^4 cells in each”, “concentration (IC50).” for “concentration (IC50). Optical density versus compound concentration was plotted and analyzed using non-linear regression equations (IDBS XLfit) and the IC50 for each compound was calculated.”

The test system of another experiment is BT-549. In words: Cell proliferation assay, BT-549. The class given is cell-based. The settings on record: Homo sapiens; BT-549, type BaB, 72 h. How it is done: as §1, with “1.5×10^4 cells (depending on cell type) in each” for “1.5×10^4 cells in each”, “concentration (IC50).” for “concentration (IC50). Optical density versus compound concentration was plotted and analyzed using non-linear regression equations (IDBS XLfit) and the IC50 for each compound was calculated.”

The test system of another experiment is MCF10A. In words: Cell proliferation assay, MCF10A. The class given is cell-based. The settings on record: Homo sapiens, MCF-10A, type BaB, 72 h. How it is done:
as §1, with “1.5×10^4 cells (depending on cell type) in each” for “1.5×10^4 cells in each”, “concentration (IC50).” for “concentration (IC50). Optical density versus compound concentration was plotted and analyzed using non-linear regression equations (IDBS XLfit) and the IC50 for each compound was calculated.”

The subject of a further experiment is HCC-1143. Briefly: Cell proliferation assay, HCC-1143. The class given is cell-based. The settings on record: Homo sapiens, HCC1143; HCC-1143, type BaA, 72 h. How it is done: as §1, with “1.5×10^4 cells (depending on cell type) in each” for “1.5×10^4 cells in each”, “concentration (IC50).” for “concentration (IC50). Optical density versus compound concentration was plotted and analyzed using non-linear regression equations (IDBS XLfit) and the IC50 for each compound was calculated.”

For another experiment, the system named is MDA-MB-157. In words: Cell proliferation assay, MDA-MB-157. The class given is cell-based. The conditions noted are these: Homo sapiens; MDA-MB-157, type BaB, 72 h. As for the experimental part: as §1, with “1.5×10^4 cells (depending on cell type) in each” for “1.5×10^4 cells in each”, “concentration (IC50).” for “concentration (IC50). Optical density versus compound concentration was plotted and analyzed using non-linear regression equations (IDBS XLfit) and the IC50 for each compound was calculated.”

The test system of the next experiment is BT-20. Briefly: Cell proliferation assay, BT-20. The class given is cell-based. The settings on record: Homo sapiens; BT-20, type BaA, 72 h. How it is done: as §1, with “1.5×10^4 cells (depending on cell type) in each” for “1.5×10^4 cells in each”, “concentration (IC50).” for “concentration (IC50). Optical density versus compound concentration was plotted and analyzed using non-linear regression equations (IDBS XLfit) and the IC50 for each compound was calculated.”

For another experiment, the system named is HCC-202. In words: Cell proliferation assay, HCC-202. The class given is cell-based. The settings on record: HCC202; HCC-202, type Lu/HER+, 72 h. How it is done: as §1, with “1.5×10^4 cells (depending on cell type) in each” for “1.5×10^4 cells in each”, “concentration (IC50).” for “concentration (IC50). Optical density versus compound concentration was plotted and analyzed using non-linear regression equations (IDBS XLfit) and the IC50 for each compound was calculated.”

The test system of another experiment is ZR7530. Briefly: Cell proliferation assay, ZR7530. The class given is cell-based. The settings on record: Homo sapiens, ZR-75-30; ZR7530, type Lu/HER+, 72 h. As for the experimental part:
as §1, with “1.5×10^4 cells (depending on cell type) in each” for “1.5×10^4 cells in each”, “concentration (IC50).” for “concentration (IC50). Optical density versus compound concentration was plotted and analyzed using non-linear regression equations (IDBS XLfit) and the IC50 for each compound was calculated.”

The test system of the next experiment is MDA-MB-231 cells. In words: Long-term growth assay, MDA-MB-231. It is filed as cell-based. The conditions noted are these: MDA-MB-231, 1 μM, 10 days, crystal violet. The text has this: At the end of the assay, media was removed from the cells and the remaining cells were stained with crystal violet.
Experiment [2] deals with MDA-MB-468 TNBC Basal A cells. In words: Nuclear localization of FOXO3a and IκB, MDA-MB-468. The conditions noted are these: MDA-MB-468, 1 μM, 24 hours. The class given is cell-based. As for the experimental part: (§2) MDA-MB-468 TNBC Basal A and BT-20 TNBC Basal B cells were exposed to DMSO or 1 μM Compound 1-3 for 24 hours and then stained for FOXO3a or IκB with or without DAPI nuclear stain. The stained cells were examined for nuclear localization.

For the next experiment, the system named is BT-20 TNBC Basal B cells. In words: Nuclear localization of FOXO3a and IκB, BT-20. The settings on record: BT-20, 1 μM, 24 hours. It is filed as cell-based. As for the experimental part: as §2
The next experiment concerns MDA-MB-468 cells. In words: Anti-apoptosis and cell cycle proteins immunoblot, MDA-MB-468. It is filed as cell-based. The conditions noted are these: MDA-MB-468, increasing concentrations, 24 hours.
A further experiment relates to HS578T cells. In words: Anti-apoptosis and cell cycle proteins immunoblot, HS578T. The conditions noted are these: increasing concentrations, 24 hours. It is filed as cell-based.
Experiment [3] concerns obese (fa/fa) Zucker rats. The class given is in vivo. As for the experimental part:
Male Zucker (fa/fa) rats and male Zucker lean rats (both from Charles River) at 10 weeks of age—a timepoint at which the Zucker fa/fa rats should show elevated food intake, body mass and elevated plasma lipid profile relative to their “lean” counterparts were singly housed in plastic bottomed cages and were given 14 days of habituation. During this period, animal body weight, food and water intakes were recorded daily. All animals were given ad-lib access to standard lab chow and water throughout the study. Once the 14 day baseline intake data were collected, the Zucker obese rats were assigned into treatment groups based on equivalent baseline data, i.e. all Zucker obese rats had equivalent daily food/water intakes and body weights. During this phase the rats also received two vehicle administrations as familiarisation to the dosing procedure. Immediately after the baseline phase, the treatment phase commenced. Test article and vehicle were administered at approximately 1 h prior to onset of the dark cycle. Dose scheduling varied according to group: 5× weekly dosing was Monday-Friday The study design was the following: Group A=Zucker lean male rats, vehicle treatment 5× week, oral, n=6, Group B=Zucker obese male rats, vehicle treatment 5× week, oral, n=6, Group C=Zucker obese male rats, I-4 2.5 mg/kg 5× week, oral, n=6.
Daily body weight, food and water intake were measured at approximately the same time of the day. At day −1 and day 7 of treatment phase.

`O=C(/C=C\n1cnc(-c2cc(C(F)(F)F)cc(C(F)(F)F)c2)n1)NNc1cnccn1` [Compound I-3, (Z)-3-(3-(3,5-bis(trifluoromethyl)phenyl)-1H-1,2,4-triazol-1-yl)-N′-(pyrazin-2-yl)acrylohydrazide]: the IC50 in [1] was at most 1000 nM; in the experiment with MDA-MB-468, 10 nM; with DU4475, 13 nM; in the experiment on BT-549, 20 nM; in the experiment with MCF10A it was 180 nM; in the experiment with HCC-1143, 600 nM. Also, the IC50 stood at 1300 nM in the experiment on MDA-MB-157, 1500 nM with BT-20, 5.2 µM in the experiment on HCC-202 and 19 µM in the experiment on ZR7530. The long-term growth entry in the experiment with MDA-MB-231 cells is on record as “inhibited the long-term growth”. Also, the “localization of FOXO3a and IκB” value in experiment [2] is “both FOXO3a and IκB were localized in the cell nucleus”; in the experiment on BT-20 TNBC Basal B cells, “both FOXO3a and IκB were localized in the cell nucleus”. Also, the MCL-1 protein level result in the experiment on MDA-MB-468 cells and with HS578T cells was “a reduction in MCL-1 is observed” in each case.

Regarding `O=C(/C=C\n1cnc(-c2cc(C(F)(F)F)cc(C(F)(F)F)c2)n1)NNc1ccccn1` [Compound I-4, (Z)-3-(3-(3,5-bis(trifluoromethyl)phenyl)-1H-1,2,4-triazol-1-yl)-N′-(pyridin-2-yl)acrylohydrazide hydrochloride], the IC50 in experiment [1] is at most 1000 nM. Also, the “mean and cumulative food intake” value in [3] (2.5 mg/kg 5× weekly, oral, obese (fa/fa) Zucker rats) was “reduced mean and cumulative food intake”. Further, the body weight gain entry in experiment [3] (2.5 mg/kg 5× weekly, oral, compared to Zucker fa/fa controls) is “significantly reduced weight gain”. For the same molecule, the “body weight gain after washout” value in experiment [3] (2 day washout phase, compared to Zucker fa/fa controls) was “body weight gain still reduced”.
